Experimental data as given in ChEMBL document CHEMBL1201862, “PubChem BioAssay data set” (2004).
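Five compound concentrations were applied to cells in 96-well plates for 48 hours; endpoints were derived by simple linear interpolation of the resulting dose-response curve. The concentration for 50% growth inhibition is given as GI50.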 The source made the active and inactive calls. Rule as the data show it: active = GI50 up to about 1.1 µM and inactive = higher.

Tests used:
Experiment in all cases: NCI tumour cell line growth inhibition, 48 h
[1] = system: NCI-H226
[2] = system: Malme-3M
[3] = system: RXF 393
[4] = system: SF-295
[5] = system: ACHN
[6] = system: M14
[7] = system: KM12
[8] = system: SK-MEL-2
[9] = system: SNB-75
[10] = system: LOX IMVI
[11] = system: UACC-62
[12] = system: SF-268
[13] = system: HCT-15
[14] = system: TK-10
[15] = system: EKVX
[16] = system: SK-OV-3
[17] = system: HOP-62
[18] = system: SK-MEL-5
[19] = system: SK-MEL-28
[20] = system: 786-0

SMILES	GI50 [1]	GI50 [2]	GI50 [3]	GI50 [4]	GI50 [5]	GI50 [6]	GI50 [7]	GI50 [8]	GI50 [9]	GI50 [10]	GI50 [11]	GI50 [12]	GI50 [13] [µM]	GI50 [14]	GI50 [15]	GI50 [16]	GI50 [17]	GI50 [18]	GI50 [19]	GI50 [20]
CCOC(=O)c1c(-c2cccc(Cl)c2)c(C(=O)OC)c(C)c2sc(C=O)nc12	21.8 µM (inactive)	19.3 µM (inactive)	23.8 µM (inactive)	15.8 µM (inactive)	16.8 µM (inactive)	17 µM (inactive)	16.7 µM (inactive)	16.8 µM (inactive)	21.6 µM (inactive)	14.3 µM (inactive)	15.8 µM (inactive)	19 µM (inactive)	19.8	29.3 µM (inactive)	16.6 µM (inactive)	26.7 µM (inactive)	13.6 µM (inactive)	14.3 µM (inactive)	18 µM (inactive)	–
O=C(CC1Sc2ccccc2NC1=O)Nc1ccc(Cl)cc1 (configuration not stated)	> 100 µM (inactive)	46.2 µM (inactive)	31.1 µM (inactive)	> 100 µM (inactive)	26.5 µM (inactive)	92.5 µM (inactive)	> 100 µM (inactive)	> 100 µM (inactive)	13.1 µM (inactive)	> 100 µM (inactive)	23.9 µM (inactive)	38.5 µM (inactive)	75.9	> 100 µM (inactive)	> 100 µM (inactive)	> 100 µM (inactive)	> 100 µM (inactive)	> 100 µM (inactive)	> 100 µM (inactive)	–
COc1cc(C2C3=C(N=C4SC(C(C)=O)=C(C)N42)c2ccccc2CC3)cc(OC)c1OC (configuration not stated)	> 100 µM (inactive)	–	46.8 µM (inactive)	68.7 µM (inactive)	> 100 µM (inactive)	> 100 µM (inactive)	> 100 µM (inactive)	> 100 µM (inactive)	53.7 µM (inactive)	> 100 µM (inactive)	> 100 µM (inactive)	> 100 µM (inactive)	–	–	85.5 µM (inactive)	> 100 µM (inactive)	97.9 µM (inactive)	41.8 µM (inactive)	> 100 µM (inactive)	> 100 µM (inactive)
CN(C)/N=N/c1ccc(NC=O)cc1	–	–	> 100 µM (inactive)	> 100 µM (inactive)	> 100 µM (inactive)	> 100 µM (inactive)	> 100 µM (inactive)	> 100 µM (inactive)	> 100 µM (inactive)	> 100 µM (inactive)	40.6 µM (inactive)	0.456 µM (active)	> 100	> 100 µM (inactive)	> 100 µM (inactive)	> 100 µM (inactive)	> 100 µM (inactive)	> 100 µM (inactive)	> 100 µM (inactive)	> 100 µM (inactive)
CCOC(=O)CNC(=O)C(CSCc1ccc(Br)cc1)NC(=O)CCC(N)C(=O)OCC (configuration not stated)	–	–	> 50 µM (inactive)	> 50 µM (inactive)	> 50 µM (inactive)	> 50 µM (inactive)	40.6 µM (inactive)	> 50 µM (inactive)	> 50 µM (inactive)	–	> 50 µM (inactive)	> 50 µM (inactive)	> 50	–	> 50 µM (inactive)	> 50 µM (inactive)	> 50 µM (inactive)	> 50 µM (inactive)	> 50 µM (inactive)	> 50 µM (inactive)
Nc1nc(Cl)cc(NCC2(CCO)CCC2)n1	> 100 µM (inactive)	> 100 µM (inactive)	80.5 µM (inactive)	> 10 µM (inactive)	> 100 µM (inactive)	–	> 100 µM (inactive)	> 100 µM (inactive)	> 10 µM (inactive)	> 100 µM (inactive)	> 10 µM (inactive)	–	> 100	> 100 µM (inactive)	59.4 µM (inactive)	> 100 µM (inactive)	> 100 µM (inactive)	> 100 µM (inactive)	> 100 µM (inactive)	> 100 µM (inactive)
Cc1c(S(=O)(=O)c2ccccc2)c(N)n(CCN(C)C)c1C	> 100 µM (inactive)	> 100 µM (inactive)	> 100 µM (inactive)	> 100 µM (inactive)	> 100 µM (inactive)	> 100 µM (inactive)	> 100 µM (inactive)	> 100 µM (inactive)	> 100 µM (inactive)	–	> 100 µM (inactive)	> 100 µM (inactive)	> 100	> 100 µM (inactive)	> 100 µM (inactive)	> 100 µM (inactive)	–	> 100 µM (inactive)	> 100 µM (inactive)	> 100 µM (inactive)
O=C1C(N2CCNCC2)=C(Cl)C(=O)c2ncccc21	> 10 µM (inactive)	> 10 µM (inactive)	> 10 µM (inactive)	> 10 µM (inactive)	> 10 µM (inactive)	> 10 µM (inactive)	> 10 µM (inactive)	> 10 µM (inactive)	> 10 µM (inactive)	–	> 10 µM (inactive)	> 10 µM (inactive)	> 10	> 10 µM (inactive)	> 10 µM (inactive)	> 10 µM (inactive)	> 10 µM (inactive)	5.79 µM (inactive)	> 10 µM (inactive)	> 10 µM (inactive)
CN1C2CCC1/C(=C/c1cccc3c1OCO3)C(=O)/C2=C\c1cccc2c1OCO2	> 100 µM (inactive)	> 100 µM (inactive)	11.3 µM (inactive)	22.1 µM (inactive)	> 100 µM (inactive)	59 µM (inactive)	> 100 µM (inactive)	> 100 µM (inactive)	11.1 µM (inactive)	> 100 µM (inactive)	14.3 µM (inactive)	47.6 µM (inactive)	> 100	21.3 µM (inactive)	> 100 µM (inactive)	85.7 µM (inactive)	12.3 µM (inactive)	37.9 µM (inactive)	> 100 µM (inactive)	–
OC[P+](CO)(CO)C12CC3CC(CC(C3)C1)C2	> 100 µM (inactive)	> 100 µM (inactive)	> 63.2 µM (inactive)	> 30.1 µM (inactive)	> 100 µM (inactive)	> 100 µM (inactive)	> 100 µM (inactive)	> 100 µM (inactive)	> 64.4 µM (inactive)	4.67 µM (inactive)	> 100 µM (inactive)	> 100 µM (inactive)	> 89.5	> 100 µM (inactive)	> 100 µM (inactive)	> 100 µM (inactive)	> 100 µM (inactive)	> 100 µM (inactive)	> 100 µM (inactive)	–
O=C1C(=C2CCCC2)CCC1CN1CCCCC1 (configuration not stated)	–	16.3 µM (inactive)	16.4 µM (inactive)	> 100 µM (inactive)	–	15.7 µM (inactive)	18.6 µM (inactive)	16.5 µM (inactive)	0.489 µM (active)	–	18.5 µM (inactive)	19.5 µM (inactive)	16.3	14.1 µM (inactive)	18.8 µM (inactive)	–	–	18.2 µM (inactive)	17.5 µM (inactive)	13.6 µM (inactive)
CN1c2ccccc2SC2C(c3ccccc3)=NOC21 (configuration not stated)	47.6 µM (inactive)	8.39 µM (inactive)	> 100 µM (inactive)	30.7 µM (inactive)	52.6 µM (inactive)	38.2 µM (inactive)	47.8 µM (inactive)	38.5 µM (inactive)	16 µM (inactive)	–	35.1 µM (inactive)	51.8 µM (inactive)	15.5	16.2 µM (inactive)	24.9 µM (inactive)	64.1 µM (inactive)	33.8 µM (inactive)	> 10 µM (inactive)	31.1 µM (inactive)	35.4 µM (inactive)
CC1=C(C(=O)NCc2ccccc2)C(c2ccco2)C(C(=O)NCc2ccccc2)=C(C)N1	> 100 µM (inactive)	> 100 µM (inactive)	66.8 µM (inactive)	56.9 µM (inactive)	31.5 µM (inactive)	57 µM (inactive)	33.8 µM (inactive)	27.6 µM (inactive)	> 100 µM (inactive)	77.3 µM (inactive)	17.3 µM (inactive)	80.4 µM (inactive)	52.8	57.4 µM (inactive)	> 100 µM (inactive)	> 100 µM (inactive)	65.3 µM (inactive)	> 100 µM (inactive)	> 100 µM (inactive)	–
CN1Cc2cc3c(cc2-c2ccccc21)OCO3	–	–	> 100 µM (inactive)	> 100 µM (inactive)	> 100 µM (inactive)	> 100 µM (inactive)	> 100 µM (inactive)	> 100 µM (inactive)	> 100 µM (inactive)	> 100 µM (inactive)	> 100 µM (inactive)	> 100 µM (inactive)	–	> 100 µM (inactive)	> 100 µM (inactive)	> 10 µM (inactive)	–	> 100 µM (inactive)	> 100 µM (inactive)	> 100 µM (inactive)
CC(NNC(=O)c1cc[n+]([BH2-]C#N)cc1)c1ccc(Cl)cc1Cl (configuration not stated)	14.2 µM (inactive)	43.9 µM (inactive)	43.3 µM (inactive)	32.5 µM (inactive)	42.7 µM (inactive)	42.4 µM (inactive)	34.8 µM (inactive)	49.5 µM (inactive)	31.8 µM (inactive)	29.2 µM (inactive)	55.8 µM (inactive)	41.2 µM (inactive)	44.8	48.6 µM (inactive)	24.5 µM (inactive)	–	–	23 µM (inactive)	44.5 µM (inactive)	49.1 µM (inactive)
CCOC(=O)CSC(=O)NCCCl	> 100 µM (inactive)	> 100 µM (inactive)	> 100 µM (inactive)	> 100 µM (inactive)	> 100 µM (inactive)	> 100 µM (inactive)	> 100 µM (inactive)	> 100 µM (inactive)	> 100 µM (inactive)	–	> 100 µM (inactive)	> 100 µM (inactive)	> 100	> 100 µM (inactive)	> 100 µM (inactive)	> 100 µM (inactive)	> 100 µM (inactive)	–	> 100 µM (inactive)	> 100 µM (inactive)
